Drawing on ChEMBL document CHEMBL3045830, “Differential effect of triazoles on mycelial growth and disease measurements of Monilinia fructicola isolates with reduced sensitivity to DMI fungicides” (Crop Prot, 2007), this text covers Activity and EC50 for 3 molecules.

What all share (format): functional, organism-based
In test [1] the test system is Monilinia fructicola. Put plainly: Fungicidal activity against Monilinia fructicola isolate GADL133.04 infected peach fruit assessed as decrease in sporulation area at 0.112 ml/l applied 24 hr after inoculation after 5 days relative to untreated-control.
The subject of test [2] is Monilinia fructicola. Put plainly: Fungicidal activity against Monilinia fructicola isolate GADL133.04 infected peach fruit assessed as decrease in sporulation area at 0.112 ml/l applied 24 hr prior to inoculation after 5 days relative to untreated-control.
The test system of test [3] is Monilinia fructicola. Put plainly: Fungicidal activity against Monilinia fructicola isolate SCDL71.01 infected peach fruit assessed as decrease in sporulation area at 0.112 ml/l applied 24 hr after inoculation after 5 days relative to untreated-control.
Test [4] has as its system Monilinia fructicola. Put plainly: Fungicidal activity against Monilinia fructicola isolate SCDL71.01 infected peach fruit assessed as decrease in sporulation area at 0.112 ml/l applied 24 hr prior to inoculation after 5 days relative to untreated-control.
The subject of test [5] is Monilinia fructicola. Put plainly: Fungicidal activity against Monilinia fructicola isolate GADL193.04 infected peach fruit assessed as decrease in brown rot disease incidence at 0.112 ml/l applied 24 hr prior to inoculation after 5 days relative to untreated-control.
The test system of test [6] is Monilinia fructicola. Put plainly: Fungicidal activity against Monilinia fructicola isolate GADL133.04 infected peach fruit assessed as decrease in brown rot disease incidence at 0.112 ml/l applied 24 hr prior to inoculation after 5 days relative to untreated-control.
The test system of test [7] is Monilinia fructicola. Put plainly: Fungicidal activity against Monilinia fructicola isolate SCDL71.01 assessed as reduction in colony diameter after 5 days.
Test [8] relates to Monilinia fructicola. Put plainly: Fungicidal activity against Monilinia fructicola isolate GADL193.04 infected peach fruit assessed as decrease in brown rot disease incidence at 0.112 ml/l applied 24 hr after inoculation after 5 days relative to untreated-control.
The test system of test [9] is Monilinia fructicola. Put plainly: Fungicidal activity against Monilinia fructicola isolate GADL133.04 infected peach fruit assessed as decrease in brown rot disease incidence at 0.112 ml/l applied 24 hr after inoculation after 5 days relative to untreated-control.
Test [10] concerns Monilinia fructicola. Put plainly: Fungicidal activity against Monilinia fructicola isolate GADL133.04 assessed as reduction in colony diameter after 5 days.
The test system of test [11] is Monilinia fructicola. Put plainly: Fungicidal activity against Monilinia fructicola isolate GADL193.04 assessed as reduction in colony diameter after 5 days.
Test [12] relates to Monilinia fructicola. Put plainly: Fungicidal activity against Monilinia fructicola isolate SCDL71.01 infected peach fruit assessed as decrease in brown rot disease incidence at 0.112 ml/l applied 24 hr prior to inoculation after 5 days relative to untreated-control.
Test [13] has as its system Monilinia fructicola. Put plainly: Fungicidal activity against Monilinia fructicola isolate SCDL71.01 infected peach fruit assessed as decrease in brown rot disease incidence at 0.112 ml/l applied 24 hr after inoculation after 5 days relative to untreated-control.
Test [14] concerns Monilinia fructicola. Put plainly: Fungicidal activity against Monilinia fructicola isolate GADL193.04 infected peach fruit assessed as decrease in sporulation area at 0.112 ml/l applied 24 hr after inoculation after 5 days relative to untreated-control.
For test [15], the system named is Monilinia fructicola. Put plainly: Fungicidal activity against Monilinia fructicola isolate GADL193.04 infected peach fruit assessed as decrease in sporulation area at 0.112 ml/l applied 24 hr prior to inoculation after 5 days relative to untreated-control.
Test [16] concerns Monilinia fructicola. Put plainly: Fungicidal activity against Monilinia fructicola isolate GADL133.04 infected peach fruit assessed as decrease in sporulation area at 0.131 ml/l applied 24 hr after inoculation after 5 days relative to untreated-control.
Test [17] deals with Monilinia fructicola. Put plainly: Fungicidal activity against Monilinia fructicola isolate GADL133.04 infected peach fruit assessed as decrease in sporulation area at 0.131 ml/l applied 24 hr prior to inoculation after 5 days relative to untreated-control.
In test [18] the test system is Monilinia fructicola. Put plainly: Fungicidal activity against Monilinia fructicola isolate SCDL71.01 infected peach fruit assessed as decrease in sporulation area at 0.131 ml/l applied 24 hr after inoculation after 5 days relative to untreated-control.
Test [19] deals with Monilinia fructicola. Put plainly: Fungicidal activity against Monilinia fructicola isolate GADL193.04 infected peach fruit assessed as decrease in brown rot disease incidence at 0.131 ml/l applied 24 hr after inoculation after 5 days relative to untreated-control.
For test [20], the system named is Monilinia fructicola. Put plainly: Fungicidal activity against Monilinia fructicola isolate SCDL71.01 infected peach fruit assessed as decrease in sporulation area at 0.131 ml/l applied 24 hr prior to inoculation after 5 days relative to untreated-control.
The subject of test [21] is Monilinia fructicola. Put plainly: Fungicidal activity against Monilinia fructicola isolate SCDL71.01 infected peach fruit assessed as decrease in brown rot disease incidence at 0.131 ml/l applied 24 hr prior to inoculation after 5 days relative to untreated-control.
The test system of test [22] is Monilinia fructicola. Put plainly: Fungicidal activity against Monilinia fructicola isolate SCDL71.01 infected peach fruit assessed as decrease in brown rot disease incidence at 0.131 ml/l applied 24 hr after inoculation after 5 days relative to untreated-control.
The subject of test [23] is Monilinia fructicola. Put plainly: Fungicidal activity against Monilinia fructicola isolate GADL133.04 infected peach fruit assessed as decrease in brown rot disease incidence at 0.131 ml/l applied 24 hr prior to inoculation after 5 days relative to untreated-control.
The subject of test [24] is Monilinia fructicola. Put plainly: Fungicidal activity against Monilinia fructicola isolate GADL193.04 infected peach fruit assessed as decrease in brown rot disease incidence at 0.131 ml/l applied 24 hr prior to inoculation after 5 days relative to untreated-control.
The test system of test [25] is Monilinia fructicola. Put plainly: Fungicidal activity against Monilinia fructicola isolate GADL133.04 infected peach fruit assessed as decrease in brown rot disease incidence at 0.131 ml/l applied 24 hr after inoculation after 5 days relative to untreated-control.
In test [26] the test system is Monilinia fructicola. Put plainly: Fungicidal activity against Monilinia fructicola isolate GADL193.04 infected peach fruit assessed as decrease in sporulation area at 0.131 ml/l applied 24 hr after inoculation after 5 days relative to untreated-control.
The test system of test [27] is Monilinia fructicola. Put plainly: Fungicidal activity against Monilinia fructicola isolate GADL193.04 infected peach fruit assessed as decrease in sporulation area at 0.131 ml/l applied 24 hr prior to inoculation after 5 days relative to untreated-control.
For test [28], the system named is Monilinia fructicola. Put plainly: Fungicidal activity against Monilinia fructicola isolate SCDL71.01 infected peach fruit assessed as decrease in sporulation area at 0.135 ml/l applied 24 hr after inoculation after 5 days relative to untreated-control.
In test [29] the test system is Monilinia fructicola. Put plainly: Fungicidal activity against Monilinia fructicola isolate SCDL71.01 infected peach fruit assessed as decrease in sporulation area at 0.135 ml/l applied 24 hr prior to inoculation after 5 days relative to untreated-control.
Test [30] has as its system Monilinia fructicola. Put plainly: Fungicidal activity against Monilinia fructicola isolate GADL193.04 infected peach fruit assessed as decrease in brown rot disease incidence at 0.135 ml/l applied 24 hr after inoculation after 5 days relative to untreated-control.
Test [31] concerns Monilinia fructicola. Put plainly: Fungicidal activity against Monilinia fructicola isolate GADL133.04 infected peach fruit assessed as decrease in brown rot disease incidence at 0.135 ml/l applied 24 hr after inoculation after 5 days relative to untreated-control.
The subject of test [32] is Monilinia fructicola. Put plainly: Fungicidal activity against Monilinia fructicola isolate GADL193.04 infected peach fruit assessed as decrease in brown rot disease incidence at 0.135 ml/l applied 24 hr prior to inoculation after 5 days relative to untreated-control.
In test [33] the test system is Monilinia fructicola. Put plainly: Fungicidal activity against Monilinia fructicola isolate GADL133.04 infected peach fruit assessed as decrease in brown rot disease incidence at 0.135 ml/l applied 24 hr prior to inoculation after 5 days relative to untreated-control.
Test [34] deals with Monilinia fructicola. Put plainly: Fungicidal activity against Monilinia fructicola isolate SCDL71.01 infected peach fruit assessed as decrease in brown rot disease incidence at 0.135 ml/l applied 24 hr prior to inoculation after 5 days relative to untreated-control.
The subject of test [35] is Monilinia fructicola. Put plainly: Fungicidal activity against Monilinia fructicola isolate SCDL71.01 infected peach fruit assessed as decrease in brown rot disease incidence at 0.135 ml/l applied 24 hr after inoculation after 5 days relative to untreated-control.
The test system of test [36] is Monilinia fructicola. Put plainly: Fungicidal activity against Monilinia fructicola isolate GADL193.04 infected peach fruit assessed as decrease in sporulation area at 0.135 ml/l applied 24 hr after inoculation after 5 days relative to untreated-control.
Test [37] concerns Monilinia fructicola. Put plainly: Fungicidal activity against Monilinia fructicola isolate GADL133.04 infected peach fruit assessed as decrease in sporulation area at 0.135 ml/l applied 24 hr after inoculation after 5 days relative to untreated-control.
In test [38] the test system is Monilinia fructicola. Put plainly: Fungicidal activity against Monilinia fructicola isolate GADL133.04 infected peach fruit assessed as decrease in sporulation area at 0.135 ml/l applied 24 hr prior to inoculation after 5 days relative to untreated-control.
Test [39] concerns Monilinia fructicola. Put plainly: Fungicidal activity against Monilinia fructicola isolate GADL193.04 infected peach fruit assessed as decrease in sporulation area at 0.135 ml/l applied 24 hr prior to inoculation after 5 days relative to untreated-control.

The source made the active and inactive calls. No cut-off for these calls is given here.

With `N#CC(CCc1ccc(Cl)cc1)(Cn1cncn1)c1ccccc1` (stereo not given) [FENBUCONAZOLE], the result in test [1], in test [2], in [3], in [4], in test [5] and in [6] was Active. Besides, the result in test [8], in test [9], in test [10], in test [11], in test [12] and in test [13] was Active. Besides, the result in test [14] and in test [15] was Active. Moreover, the EC50 in test [7] came out at 0.019 uL/ml.
For the molecule `CCCC1COC(Cn2cncn2)(c2ccc(Cl)cc2Cl)O1` (stereo not given) [PROPICONAZOLE], the result in [16], in test [17], in test [18], in test [19], in test [20] and in test [10] was Active. Moreover, the result in test [11], in test [21], in test [22], in test [23], in test [24] and in test [25] was Active. In addition, the result in test [26] and in [27] was Active. Also, in test [7], the EC50 was determined as 0.023 uL/ml.
Consider `CC(C)(C)C(O)(CCc1ccc(Cl)cc1)Cn1cncn1` (stereo not given) [TEBUCONAZOLE], for which the result in [28], in test [29], in [30], in [31], in [32] and in test [33] was Active. Moreover, the outcome in test [10], in [11], in [34], in test [35], in test [36] and in [37] was Active. The result in test [38] and in test [39] was Active. For the same molecule, the EC50 in test [7] is 0.018 uL/ml.
